Laboratory results taken from patent publication US9072734B2, “Quaternary ammonium salt compounds” (Teijin Pharma Limited, priority 2009, dated 2015).
Structures can show the parent of a compound that is named as a salt.

How the values were obtained:
[1] = target: T1, human β2 adrenergic receptor (Homo sapiens, UniProt P07550); test: Whole-cell cAMP Flashplate assay using CHO-K1 cells stably expressing human β2 adrenergic receptor; format: cell-based; settings: cAMP production
T1 construct: expressed in transfected cells; host or cells: CHO-K1
T1 sequence (P07550 whole entry): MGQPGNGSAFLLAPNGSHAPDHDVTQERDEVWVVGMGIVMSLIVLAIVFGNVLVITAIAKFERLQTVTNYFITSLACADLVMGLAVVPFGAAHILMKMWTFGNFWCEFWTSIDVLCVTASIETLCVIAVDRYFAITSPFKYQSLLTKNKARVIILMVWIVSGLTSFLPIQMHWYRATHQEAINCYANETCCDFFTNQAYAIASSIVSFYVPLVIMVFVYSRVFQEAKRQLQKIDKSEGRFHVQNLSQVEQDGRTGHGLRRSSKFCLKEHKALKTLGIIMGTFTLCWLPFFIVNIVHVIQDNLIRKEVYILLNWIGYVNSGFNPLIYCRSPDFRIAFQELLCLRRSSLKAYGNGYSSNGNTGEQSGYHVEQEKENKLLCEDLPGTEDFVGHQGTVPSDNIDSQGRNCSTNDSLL
Procedure: The β2 adrenergic receptor, which couples to Gs proteins, activates adenylate cyclase upon agonist binding to the receptor. As a result, cAMP is produced in cells. The activation ability of the β2 adrenergic receptor can be measured by measuring the amount of the cAMP with cAMP-Screen System (Applied Biosystems).
CHO-K1 cells expressing the human β2 adrenergic receptor suspended in Ham's F-12 media containing 10% FBS were seeded into 96-well plates at a volume of 100 μL/well. Next day, they were washed with 200 μL PBS(−), to which 80 μL of 0.5 mM IBMX solution (Ham's F-12 media containing 0.05% BSA) was then added, followed by incubation for 20 minutes at 37° C. in the presence of 5% carbon dioxide. 20 μL of 9 concentrations of test compound solutions (0.5 mM IBMX solution containing 1% DMSO) prepared at concentrations in a range of 0.01-1000 nM with 2-fold serial dilution) were added, followed by incubation for 20 minutes at 37° C. in the presence of 5% carbon dioxide. Then, 100 μL of Assay/Lysis Buffer (a reagent that comes with cAMP Screen System) was added. The cells were lysed by pipetting, further incubated for 30 minutes at 37° C., and then frozen at −80° C. After several days, samples, thawed at room temperature, were treated according to the protocol of cAMP Screen System, and then chemiluminescence was measured by EnVision (PerkinElmer, Inc.). The amount of cAMP was calculated from the standard curve for the standard attached to cAMP Screen System.
The concentrations of a test compound at which 50% of its maximal effect is reached (EC50 values) were analyzed by a four-parameter logistic model using XLfit4 (IDBS, Ltd.) for the amounts of cAMP production at different concentrations of the test compounds.

[2] = target: T2, human M3 muscarinic receptor (Homo sapiens, UniProt P20309); test: Inhibitory effect on methacholine-induced calcium influx, FLIPR assay, CHO-K1 cells stably expressing the human M3 muscarinic receptor; format: cell-based; settings: inhibition of calcium influx induced by methacholine
T2 construct: expressed in transfected cells; host or cells: CHO-K1
T2 sequence (P20309 whole entry): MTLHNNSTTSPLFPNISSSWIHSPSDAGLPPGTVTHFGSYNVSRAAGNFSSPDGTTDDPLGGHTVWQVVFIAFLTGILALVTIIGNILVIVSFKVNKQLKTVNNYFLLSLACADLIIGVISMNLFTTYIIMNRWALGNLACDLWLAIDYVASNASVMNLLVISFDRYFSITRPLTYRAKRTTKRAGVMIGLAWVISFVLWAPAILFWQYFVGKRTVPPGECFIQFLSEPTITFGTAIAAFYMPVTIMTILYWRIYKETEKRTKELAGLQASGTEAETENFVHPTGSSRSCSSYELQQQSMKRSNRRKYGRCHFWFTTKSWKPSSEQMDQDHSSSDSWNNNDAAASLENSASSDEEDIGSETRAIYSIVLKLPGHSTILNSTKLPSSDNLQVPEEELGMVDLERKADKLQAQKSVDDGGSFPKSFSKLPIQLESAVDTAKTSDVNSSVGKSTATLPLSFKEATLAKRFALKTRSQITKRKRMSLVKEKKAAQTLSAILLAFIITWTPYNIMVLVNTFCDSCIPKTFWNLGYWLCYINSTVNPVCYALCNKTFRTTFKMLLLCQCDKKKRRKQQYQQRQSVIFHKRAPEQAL
Excerpt: Muscarinic receptor subtypes (M1, M3 and M5 receptors), which couple to Gq proteins, activate the phospholipase C (PLC) pathway upon agonist binding to the receptor. As a result, the activated PLC hydrolyzes phosphatidyl inositol diphosphate (PIP2) to diacyl glycerol (DAG) and […] (IP3), which in turn generates calcium release from intracellular stores, i.e., endoplasmic and sarcoplasmic reticula. By utilizing FLIPR (Molecular Devices, Inc.) assay in which a calcium sensitive dye (Component A) is used that fluoresces when free calcium binds, the increase in intracellular calcium is measured on the basis of the change in the fluorescence intensity.
Methacholine was added to CHO-K1 cells stably expressing the human M3 muscarinic receptor to induce calcium influx and evaluate the inhibitory effect of test compounds. In the experiment, a FLIPR Calcium assay kit (Molecular Devices, Inc.) was used.
CHO-K1 cells stably expressing the human M3 muscarinic receptor suspended in Ham's F-12 media (Invitrogen, Co.) containing 10% fetal bovine serum (FBS) were seeded into 96-well FLIPR plates at a volume of 100 μL/well. Next day, 60 μL/well of Non-wash-dye solution (Hank's buffered salt solution, HBSS, containing 20 mM HEPES and 6.5 mM probenecid) was added to the cells, which were then incubated for an hour at 37° C. in the presence of 5% carbon dioxide. 20 μL of 10 concentrations of test compound solutions (HBSS containing 1% DMSO, 20 mM HEPES, 2.5 mM probenecid and 0.05% bovine serum albumin, BSA) prepared at concentrations in a range of 0.01-1000 nM with 2-fold serial dilution) were added, followed by incubation for 180 seconds. Then, 20 μL of 30 nM methacholine solution (HBSS containing 20 mM HEPES, 2.5 mM probenecid and 0.05% bovine serum albumin, BSA) was added, and fluorescence intensity was traced by the intracellular calcium influx measuring device FLIPR 96 (Molecular Devices, Inc.) for 170 seconds. The difference between the lowest and the highest values of the fluorescence intensity (FI) over the period of the measurement was used as a measured value. The percentages of inhibition by the test compounds were calculated according to the following formula from the measured value of the methacholin-added and test compound non-added sample (FIpositive), the measured value of the methacholin non-added and test compound non-added sample (FInegative), and the measured value of the methacholin-added and test compound-added sample (FItest). (%) Percentage of inhibition by test compound=[(1−(FItest−FInegative)/(FIpositive−FInegative)]×100
The 50% inhibitory concentrations (IC50 values) of test compounds were analyzed by a four-parameter logistic model using XLfit4 (IDBS, Ltd.) for the percentage of the inhibition by different concentrations of test compounds.

| EC50 [1] | IC50 [2] | SMILES |
| --- | --- | --- |
| 9.7 nM | 16.2 nM | C[N+]1(C)CCC(OC(=O)Nc2cc(CCC(=O)Nc3ccc(CNC[C@H](O)c4ccc(O)c5[nH]c(=O)ccc45)c(Cl)c3)ccc2-c2ccccc2)CC1 [Example 3, 4-({[5-(2-{[3-chloro-4-({[(2R)-2-hydroxy-2-(8-hydroxy-2-oxo-1,2-dihydroquinolin-5-yl)ethyl]amino}methyl)phenyl]carbamoyl}ethyl)-2-phenylphenyl]carbamoyl}oxy)-1,1-dimethylpiperidin-1-ium trifluoroacetate] |
| 4.1 nM | 4.9 nM | C[N+]1(C)CCC(OC(=O)Nc2cc(CCC(=O)Nc3ccc(CNC[C@H](O)c4ccc(O)c5[nH]c(=O)ccc45)cc3F)ccc2-c2ccccc2)CC1 [Example 4, 4-({[5-(2-{[2-fluoro-4-({[2R)-2-hydroxy-2-(8-hydroxy-2-oxo-1,2-dihydroquinolin-5-yl)ethyl]amino}methyl)phenyl]carbamoyl}ethyl)-2-phenylphenyl]carbamoyl}oxy)-1,1-dimethylpiperidin-1-ium trifluoroacetate] |
| 0.2 nM | – | C[N+]1(C)CCC(OC(=O)Nc2cc(OCCCCCCNC[C@H](O)c3ccc(O)c4[nH]c(=O)ccc34)ccc2-c2ccccc2)CC1 [Example 59, 4-[({5-[(6-{[(2R)-2-hydroxy-2-(8-hydroxy-2-oxo-1,2-dihydroquinolin-5-yl)ethyl]amino}hexyl)oxy]-2-phenylphenyl}carbamoyl)oxy]-1,1-dimethylpiperidin-1-ium trifluoroacetate] |
| 38 nM | – | C[N+]1(C)CCC(OC(=O)Nc2cc(OCC(=O)Nc3ccc(CNC[C@H](O)c4ccc(O)c5[nH]c(=O)ccc45)cc3)ccc2-c2ccccc2)CC1 [Example 64, 4-({[5-(2-{[4-({[(2R)-2-hydroxy-2-(8-hydroxy-2-oxo-1,2-dihydroquinolin-5-yl)ethyl]amino}methyl)phenyl]carbamoyl}methoxy)-2-phenylphenyl]carbamoyl}oxy)-1,1-dimethylpiperidin-1-ium trifluoroacetate] |
| 14.5 nM | – | C[N+]1(C)CCC(OC(=O)Nc2cc(CCC(=O)NCc3ccc(CNC[C@H](O)c4ccc(O)c5[nH]c(=O)ccc45)cc3)ccc2-c2ccccc2)CC1 [Example 65, 4-[({5-[2-({[4-({[(2R)-2-hydroxy-2-(8-hydroxy-2-oxo-1,2-dihydroquinolin-5-yl)ethyl]amino}methyl)phenyl]methyl}carbamoyl)ethyl]-2-phenylphenyl}carbamoyl)oxy]-1,1-dimethylpiperidin-1-ium trifluoroacetate] |

The next lines start with the compound.

| SMILES | EC50 [1] | IC50 [2] |
| --- | --- | --- |
| C[N+]1(C)[C@@H]2CC(OC(=O)Nc3cc(CCCC(=O)Nc4ccc5cc(CNC[C@H](O)c6ccc(O)c7[nH]c(=O)ccc67)ccc5c4)ccc3-c3ccccc3)C[C@H]1[C@@H]1O[C@@H]12 (stereo partly drawn) [Example 35, (1R,2R,4S,5S,7S)-7-({[5-(3-{[6-({[(2R)-2-hydroxy-2-(8-hydroxy-2-oxo-1,2-dihydroquinolin-5-yl)ethyl]amino}methyl)naphthalen-2-yl]carbamoyl}propyl)-2-phenylphenyl]carbamoyl}oxy)-9,9-dimethyl-3-oxa-9-azatricyclo[3.3.1.0^2,4]nonan-9-ium trifluoroacetate] | 2.7 nM | – |
| C[N+]1(C)[C@@H]2CC(OC(=O)Nc3cc(CCC(=O)Nc4ccc5cc(CNC[C@H](O)c6ccc(O)c7[nH]c(=O)ccc67)ccc5c4)ccc3-c3ccccc3)C[C@H]1[C@@H]1O[C@@H]12 (stereo partly drawn) [Example 40, (1R,2R,4S,5S,7S)-7-({[5-(2-{[6-({[(2R)-2-hydroxy-2-(8-hydroxy-2-oxo-1,2-dihydroquinolin-5-yl)ethyl]amino}methyl)naphthalen-2-yl]carbamoyl}ethyl)-2-phenylphenyl]carbamoyl}oxy)-9,9-dimethyl-3-oxa-9-azatricyclo[3.3.1.0^2,4]nonan-9-ium trifluoroacetate] | 3.4 nM | – |
| C[N+]1(CCOc2ccccc2)CCC(OC(=O)Nc2cc(CCC(=O)Nc3ccc(CNC[C@H](O)c4ccc(O)c5[nH]c(=O)ccc45)cc3)ccc2-c2ccccc2)CC1 (stereo partly drawn) [Example 57, 4-({[5-(2-{[4-({[(2R)-2-hydroxy-2-(8-hydroxy-2-oxo-1,2-dihydroquinolin-5-yl)ethyl]amino}methyl)phenyl]carbamoyl}ethyl)-2-phenylphenyl]carbamoyl}oxy)-1-methyl-1-(2-phenoxyethyl)piperidin-1-ium trifluoro acetate] | 2.7 nM | – |
| C[N+]1(C)CCC(OC(=O)Nc2cc(OCCCCCCCCCNC[C@H](O)c3ccc(O)c4[nH]c(=O)ccc34)ccc2-c2ccccc2)CC1 [Example 60, 4-[({5-[(9-{[(2R)-2-hydroxy-2-(8-hydroxy-2-oxo-1,2-dihydroquinolin-5-yl)ethyl]amino}nonyl)oxy]-2-phenylphenyl}carbamoyl)oxy]-1,1-dimethylpiperidin-1-ium trifluoroacetate] | 1.2 nM | – |
| C[N+]1(C)CCC(OC(=O)Nc2cc(CCCC(=O)NCc3ccc(CNC[C@H](O)c4ccc(O)c5[nH]c(=O)ccc45)cc3)ccc2-c2ccccc2)CC1 [Example 66, 4-[({5-[3-({[4-({[(2R)-2-hydroxy-2-(8-hydroxy-2-oxo-1,2-dihydroquinolin-5-yl)ethyl]amino}methyl)phenyl]methyl}carbamoyl)propyl]-2-phenylphenyl}carbamoyl)oxy]-1,1-dimethylpiperidin-1-ium trifluoroacetate] | 12.6 nM | – |
| C[N+]1(C)CCC(OC(=O)Nc2cc(/C=C/C(=O)Nc3ccc(CNC[C@H](O)c4ccc(O)c5[nH]c(=O)ccc45)cc3)ccc2-c2ccccc2)CC1 [Example 67, 4-[({5-[(1E)-2-{[4-({[(2R)-2-hydroxy-2-(8-hydroxy-2-oxo-1,2-dihydroquinolin-5-yl)ethyl]amino}methyl)phenyl]carbamoyl}-1-ethen-1-yl]-2-phenylphenyl}carbamoyl)oxy]-1,1-dimethylpiperidin-1-ium trifluoroacetate] | 0.4 nM | – |
| C[N+]1(C)CCC(OC(=O)Nc2cc(CCC(=O)NCCCCCNC[C@H](O)c3ccc(O)c4[nH]c(=O)ccc34)ccc2-c2ccccc2)CC1 [Example 74, 4-({[5-(2-{[5-{[(2R)-2-hydroxy-2-(8-hydroxy-2-oxo-1,2-dihydroquinolin-5-yl)ethyl]amino}pentyl]carbamoyl}ethyl)-2-phenylphenyl]carbamoyl}oxy)-1,1-dimethylpiperidin-1-ium trifluoroacetate] | 4.5 nM | – |
| C[N+]1(C)CCC(OC(=O)Nc2cc(C(=O)OCCCCCCCNCC(O)c3ccc(O)c4[nH]c(=O)ccc34)ccc2-c2ccccc2)CC1 [Example 75, 4-{[5-({[(7-{[(2R)-2-hydroxy-2-(8-hydroxy-2-oxo-1,2-dihydroquinolin-5-yl)ethyl]amino}heptyl)oxy]carbonyl}-2-phenylphenyl)carbamoyl]oxy}-1,1-dimethylpiperidin-1-ium trifluoro acetate] | 0.5 nM | – |
| C[N+]1(C)CCC(OC(=O)Nc2cc(OCCOc3ccc(CCNC[C@H](O)c4ccc(O)c5[nH]c(=O)ccc45)cc3)ccc2-c2ccccc2)CC1 [Example 79, 4-{[(5-{2-[4-(2-{[(2R)-2-hydroxy-2-(8-hydroxy-2-oxo-1,2-dihydroquinolin-5-yl)ethyl]amino}ethyl)phenoxy]ethoxy}-2-phenylphenyl)carbamoyl]oxy}-1,1-dimethylpiperidin-1-ium trifluoro acetate] | 5.8 nM | – |
